Earlier results as cited in patent US20150361500A1, “BIOMARKERS FOR DIAGNOSIS AND TREATMENT OF ACNE VULGARIS” (DermTech International, priority 2013, published 2015).

Tested on: acne

O=C(OOC(=O)c1ccccc1)c1ccccc1 [Benzoyl peroxide]
tolerability (2.5% concentration compared with 5 and 10%): usually better tolerated
effectiveness in acne treatment (5 and 10% concentrations compared with 2.5%): not significantly more effective
skin reactions (gel or cream applied to affected areas): commonly causes initial dryness and sometimes irritation
